Assay results taken from ChEMBL document CHEMBL3880437, “Modulators of the prostacyclin (PGI2) receptor useful for the treatment of disorders related thereto” (2014).

How the values were obtained:
[1] = target: Prostacyclin receptor (Homo sapiens, UniProt P43119); assay: Agonist activity at human recombinant prostacyclin receptor expressed in CHO-K1 cells assessed as induction of cAMP accumulation incubated for 1 hr by HTRF assay; format: functional, cell-based
[2] = system: Platelet; assay: Inhibition of ADP-induced platelet aggregation in human platelet rich plasma pre-incubated for 1 min before ADP addition and measured 3 mins post ADP addition by aggregometry; format: functional

Chain of Prostacyclin receptor (P43119 whole entry): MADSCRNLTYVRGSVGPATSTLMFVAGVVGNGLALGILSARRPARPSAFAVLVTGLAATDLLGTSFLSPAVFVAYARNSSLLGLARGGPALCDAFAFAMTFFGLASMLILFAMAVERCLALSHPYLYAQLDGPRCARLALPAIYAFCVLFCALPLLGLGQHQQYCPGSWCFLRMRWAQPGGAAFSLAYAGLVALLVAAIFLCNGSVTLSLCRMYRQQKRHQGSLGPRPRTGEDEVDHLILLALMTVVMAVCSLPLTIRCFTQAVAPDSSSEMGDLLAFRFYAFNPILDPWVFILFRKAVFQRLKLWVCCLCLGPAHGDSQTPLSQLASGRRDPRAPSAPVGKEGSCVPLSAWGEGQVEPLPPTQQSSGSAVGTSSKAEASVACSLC

SMILES	EC50 [1] [nM]	IC50 [2] [nM]
Cc1ccc(N(C(=O)NC[C@H]2CC[C@H](COCC(=O)O)CC2)c2ccccc2)cc1	2.7 to 2650	10.5 to 1590
Cc1ccc(N(C(=O)OC[C@H]2CC[C@H](COCC(=O)O)CC2)c2ccccc2)cc1F	2.7 to 2650	10.5 to 1590
COc1ccc(N(C(=O)OC[C@H]2CC[C@H](COCC(=O)O)CC2)c2ccccc2)cc1	2.7 to 2650	10.5 to 1590
O=C(O)COC[C@H]1CC[C@H](COC(=O)N(c2ccccc2)c2ccccc2)CC1	2.7 to 2650	10.5 to 1590
Cc1ccc(N(C(=O)OC[C@H]2CC[C@H](COCC(=O)O)CC2)c2cccc(F)c2)s1		10.5 to 1590
O=C(O)COC[C@H]1CC[C@H](COC(=O)N(c2ccccc2)c2cccnc2)CC1	2.7 to 2650	10.5 to 1590
CCOc1ccc(N(C(=O)OC[C@H]2CC[C@H](COCC(=O)O)CC2)c2ccc(F)cc2)cc1	2.7 to 2650	10.5 to 1590
O=C(O)COC[C@H]1CC[C@H](CNC(=O)N(c2ccccc2)c2cccc(C(F)(F)F)c2)CC1	2.7 to 2650	10.5 to 1590
Cc1ccc(N(C(=O)OC[C@H]2CC[C@@H](COCC(=O)O)CC2)c2ccccc2)cc1	2.7 to 2650	10.5 to 1590
O=C(O)COC[C@H]1CC[C@H](COC(=O)N(c2ccccc2)c2ccccn2)CC1	2.7 to 2650	10.5 to 1590
COc1cccc(N(C(=O)OC[C@H]2CC[C@H](COCC(=O)O)CC2)c2ccccc2)c1	2.7 to 2650	10.5 to 1590
CN(C[C@H]1CC[C@H](COCC(=O)O)CC1)C(=O)N(C)C(c1ccccc1)c1ccccc1	2.7 to 2650	10.5 to 1590
O=C(O)COC[C@H]1CC[C@H](COC(=O)N(c2cccc(F)c2)c2cccc(F)c2)CC1	2.7 to 2650	10.5 to 1590
O=C(O)COC[C@H]1CC[C@H](CNC(=O)N(c2ccccc2)c2ccc(Cl)c(F)c2)CC1	2.7 to 2650	10.5 to 1590
O=C(O)COC[C@H]1CC[C@H](CNC(=O)N(c2ccccc2)c2cccc(F)c2F)CC1	2.7 to 2650	10.5 to 1590
CCCN(C(=O)OC[C@H]1CC[C@H](COCC(=O)O)CC1)C(c1ccccc1)c1ccccc1	2.7 to 2650	10.5 to 1590
O=C(O)COC[C@H]1CC[C@H](COC(=O)N(c2cccnc2)c2cccc(F)c2)CC1	2.7 to 2650	10.5 to 1590
O=C(O)COC[C@H]1CC[C@H](COC(=O)N(c2ccccc2)c2ccnc(F)c2)CC1	2.7 to 2650	10.5 to 1590
O=C(O)COC[C@H]1CC[C@H](COC(=O)N(c2cccc(F)c2)c2cccc(Cl)c2)CC1	2.7 to 2650	10.5 to 1590
O=C(O)COC[C@H]1CC[C@@H](COC(=O)N(c2ccccc2)c2ccccc2)CC1	2.7 to 2650	10.5 to 1590
CN(C(=O)NC[C@H]1CC[C@H](COCC(=O)O)CC1)C(c1ccccc1)c1ccccc1	2.7 to 2650	10.5 to 1590
O=C(O)COC[C@H]1CC[C@H](COC(=O)N(c2ccccc2)c2ccc(F)cn2)CC1	2.7 to 2650	10.5 to 1590
O=C(O)COC[C@H]1CC[C@H](COC(=O)N(c2ccccc2)c2ccc(C(F)(F)F)cn2)CC1	2.7 to 2650	10.5 to 1590
Cc1ccc(N(C(=O)OC[C@H]2CC[C@H](COCC(=O)O)CC2)c2ccccc2)cc1	2.7 to 2650	10.5 to 1590
O=C(O)COC[C@H]1CC[C@H](COC(=O)N(c2ccc(F)nc2)c2cccc(F)c2)CC1	2.7 to 2650	10.5 to 1590
O=C(O)COC[C@H]1CC[C@H](COC(=O)N(c2ccccc2)c2cccc(Cl)c2)CC1		10.5 to 1590

SMILES	EC50 [1] [nM]	IC50 [2] [nM]
Cc1cccc(N(C(=O)NC[C@H]2CC[C@H](COCC(=O)O)CC2)c2cccc(C)c2)c1	2.7 to 2650	10.5 to 1590
O=C(O)COC[C@H]1CC[C@H](CNC(=O)N(c2ccccc2)c2cc(F)cc(F)c2)CC1	2.7 to 2650	10.5 to 1590
COc1ccc(N(C(=O)OC[C@H]2CC[C@@H](COCC(=O)O)CC2)c2ccccc2)cc1	2.7 to 2650	10.5 to 1590
Cc1cccc(N(C(=O)OC[C@H]2CC[C@H](COCC(=O)O)CC2)c2cccc(F)c2)c1	2.7 to 2650	10.5 to 1590
Cc1cccc(N(C(=O)OC[C@H]2CC[C@H](COCC(=O)O)CC2)c2ccccc2)c1	2.7 to 2650	10.5 to 1590
CCOc1ccc(N(C(=O)OC[C@H]2CC[C@H](COCC(=O)O)CC2)c2cccc(F)c2)cc1	2.7 to 2650	10.5 to 1590
O=C(O)COC[C@H]1CC[C@H](COC(=O)N(c2cccc(F)c2)c2ccc(Cl)c(F)c2)CC1	2.7 to 2650	10.5 to 1590
O=C(O)COC[C@H]1CC[C@H](COC(=O)N(c2ccc(F)cc2)c2cccc(F)c2)CC1	2.7 to 2650	10.5 to 1590
Cc1cccc(N(C(=O)NC[C@H]2CC[C@H](COCC(=O)O)CC2)c2ccccc2)c1	2.7 to 2650	10.5 to 1590
O=C(O)COC[C@H]1CC[C@@H](COC(=O)N(c2ccccc2)c2cccc(F)c2)CC1		10.5 to 1590
O=C(O)COC[C@H]1CC[C@H](COC(=O)N(c2ccccc2)c2ccc(F)c(F)c2)CC1	2.7 to 2650	10.5 to 1590
O=C(O)COC[C@H]1CC[C@H](CNC(=O)N(c2ccccc2)c2cc(F)cc(Cl)c2)CC1	2.7 to 2650	10.5 to 1590
O=C(O)COC[C@H]1CC[C@H](CNC(=O)N(c2ccccc2)c2ccc(F)c(F)c2)CC1	2.7 to 2650	10.5 to 1590
COc1cccc(N(C(=O)NC[C@H]2CC[C@H](COCC(=O)O)CC2)c2ccccc2)c1F	2.7 to 2650	10.5 to 1590
O=C(O)COC[C@H]1CC[C@@H](COC(=O)N(c2ccccc2)c2ccc(Cl)cc2)CC1		10.5 to 1590
Cc1cccc(N(C(=O)OC[C@H]2CC[C@@H](COCC(=O)O)CC2)c2ccccc2)c1	2.7 to 2650	10.5 to 1590
O=C(O)COC[C@H]1CC[C@H](CNC(=O)N(c2ccccc2)c2ccc(Cl)cc2)CC1	2.7 to 2650	10.5 to 1590
O=C(O)COC[C@H]1CC[C@H](COC(=O)N(c2ccccc2)c2ccc(Cl)c(F)c2)CC1	2.7 to 2650	10.5 to 1590
O=C(O)CNC(=O)COC[C@H]1CC[C@H](COC(=O)N(c2ccccc2)c2ccc(Cl)cc2)CC1		10.5 to 1590
O=C(O)COC[C@H]1CC[C@H](CNC(=O)N(c2ccccc2)c2cccc(Cl)c2F)CC1	2.7 to 2650	10.5 to 1590
Cc1ccc(N(C(=O)OC[C@H]2CC[C@H](COCC(=O)O)CC2)c2cccc(F)c2)cc1F	2.7 to 2650	10.5 to 1590
CN(C(=O)OC[C@H]1CC[C@H](COCC(=O)O)CC1)C(c1ccccc1)c1ccccc1	2.7 to 2650	10.5 to 1590
Cc1ccc(N(C(=O)OC[C@H]2CC[C@H](COCC(=O)O)CC2)c2ccc(F)cc2)s1	2.7 to 2650	10.5 to 1590
Cc1cccc(N(C(=O)OC[C@H]2CC[C@H](COCC(=O)O)CC2)c2ccc(F)cc2)c1	2.7 to 2650	10.5 to 1590
O=C(O)COC[C@H]1CC[C@H](COC(=O)N(c2ccccc2)c2ccc(F)cc2)CC1		10.5 to 1590
O=C(O)COC[C@H]1CC[C@H](COC(=O)N(c2cccc(F)c2)c2ccc(F)c(F)c2)CC1	2.7 to 2650	10.5 to 1590

SMILES	EC50 [1] [nM]	IC50 [2] [nM]
O=C(O)COC[C@H]1CC[C@H](COC(=O)N(c2ccc(O)cc2)c2ccc(Cl)cc2)CC1	2.7 to 2650	10.5 to 1590
O=C(O)COC[C@H]1CC[C@H](COC(=O)N(c2ccccc2)c2cncc(F)c2)CC1	2.7 to 2650	10.5 to 1590
Cc1ccc(N(C(=O)OC[C@H]2CC[C@H](COCC(=O)O)CC2)c2cccc(F)c2)cc1	2.7 to 2650	10.5 to 1590
Cc1cnc(N(C(=O)OC[C@H]2CC[C@H](COCC(=O)O)CC2)c2ccccc2)s1	2.7 to 2650	10.5 to 1590
O=C(O)COC[C@H]1CC[C@H](COC(=O)N(c2ccccc2)c2ccc(Cl)cn2)CC1	2.7 to 2650	10.5 to 1590
Cc1cncc(N(C(=O)OC[C@H]2CC[C@H](COCC(=O)O)CC2)c2ccccc2)c1	2.7 to 2650	10.5 to 1590
COc1cccc(N(C(=O)OC[C@H]2CC[C@H](COCC(=O)O)CC2)c2cccc(F)c2)c1	2.7 to 2650	10.5 to 1590
Cc1cc(C)cc(N(C(=O)OC[C@H]2CC[C@H](COCC(=O)O)CC2)c2cccc(F)c2)c1	2.7 to 2650	10.5 to 1590
O=C(O)COC[C@H]1CC[C@H](CNC(=O)N(c2ccccc2)c2cccc(Cl)c2)CC1		10.5 to 1590
O=C(O)COC[C@H]1CC[C@H](COC(=O)N(c2cccc(F)c2)c2cnccn2)CC1	2.7 to 2650	10.5 to 1590
COc1cncc(N(C(=O)OC[C@H]2CC[C@H](COCC(=O)O)CC2)c2ccccc2)c1	2.7 to 2650	10.5 to 1590
O=C(O)COC[C@H]1CC[C@H](COC(=O)N(c2ccc(F)cc2)c2ccc(OC(F)(F)F)cc2)CC1	2.7 to 2650	10.5 to 1590
O=C(O)COC[C@H]1CC[C@H](COC(=O)Nc2ccccc2)CC1	2.7 to 2650	10.5 to 1590
O=C(O)COC[C@H]1CC[C@H](COC(=O)N(c2ccc(F)cc2)c2ccc(Cl)cc2)CC1	2.7 to 2650	10.5 to 1590
O=C(O)COC[C@H]1CC[C@H](COC(=O)N(c2ccc(F)cc2)c2ccc(F)cc2)CC1	2.7 to 2650	10.5 to 1590
O=C(O)COC[C@H]1CC[C@H](COC(=O)N(c2ccccc2)c2cc(F)cc(Cl)c2)CC1	2.7 to 2650	10.5 to 1590
O=C(O)COC[C@H]1CC[C@H](CNC(=O)NC(c2ccccc2)c2ccccc2)CC1	2.7 to 2650	10.5 to 1590
COc1cccc(N(C(=O)OC[C@H]2CC[C@@H](COCC(=O)O)CC2)c2ccccc2)c1	2.7 to 2650	10.5 to 1590
O=C(O)COC[C@H]1CC[C@H](COC(=O)N(c2ccccc2)c2cccc(F)c2F)CC1	2.7 to 2650	10.5 to 1590
O=C(O)COC[C@H]1CC[C@H](COC(=O)N(c2cccc(F)c2)c2ccc(F)c(Cl)c2)CC1	2.7 to 2650	10.5 to 1590
COc1ccc(N(C(=O)OC[C@H]2CC[C@H](COCC(=O)O)CC2)c2cccc(F)c2)cc1		10.5 to 1590
O=C(O)COC[C@H]1CC[C@H](COC(=O)N(c2cccc(F)c2)c2cc(F)cc(F)c2)CC1	2.7 to 2650	10.5 to 1590
O=C(O)COC[C@H]1CC[C@@H](COC(=O)N(c2ccccc2)c2ccc(F)cc2)CC1		10.5 to 1590
O=C(O)COC[C@H]1CC[C@@H](CNC(=O)N(c2ccccc2)c2ccccc2)CC1		10.5 to 1590
